6 substances from patent US20240042019A1, “OPTIMIZED TLR7 LIGANDS AND USES THEREOF” (Genentech, Inc., priority 2021, published 2024) can be followed below.

“Also recorded” adds a separate entry of the source. Oligonucleotides are written 5' to 3', each unit as a sugar letter and its base; * is a phosphorothioate linkage, no mark a phosphodiester; rarer units and linkages stand in square brackets, end groups in braces. Plain capitals give the bases only. m = 2'-O-methyl; r = 2'-OH (RNA); f = 2'-fluoro

Series [1] deals with T1, TLR7 (Homo sapiens, UniProt Q9NYK1).
T1 construct: Peripheral blood mononuclear cells (PBMCs) were obtained from buffy coats from healthy adult donors; endogenous in cells; host or cells: primary human PBMCs from healthy donor buffy coats (TLR7 expressed by pDCs)
T1 sequence (Q9NYK1 27-1049): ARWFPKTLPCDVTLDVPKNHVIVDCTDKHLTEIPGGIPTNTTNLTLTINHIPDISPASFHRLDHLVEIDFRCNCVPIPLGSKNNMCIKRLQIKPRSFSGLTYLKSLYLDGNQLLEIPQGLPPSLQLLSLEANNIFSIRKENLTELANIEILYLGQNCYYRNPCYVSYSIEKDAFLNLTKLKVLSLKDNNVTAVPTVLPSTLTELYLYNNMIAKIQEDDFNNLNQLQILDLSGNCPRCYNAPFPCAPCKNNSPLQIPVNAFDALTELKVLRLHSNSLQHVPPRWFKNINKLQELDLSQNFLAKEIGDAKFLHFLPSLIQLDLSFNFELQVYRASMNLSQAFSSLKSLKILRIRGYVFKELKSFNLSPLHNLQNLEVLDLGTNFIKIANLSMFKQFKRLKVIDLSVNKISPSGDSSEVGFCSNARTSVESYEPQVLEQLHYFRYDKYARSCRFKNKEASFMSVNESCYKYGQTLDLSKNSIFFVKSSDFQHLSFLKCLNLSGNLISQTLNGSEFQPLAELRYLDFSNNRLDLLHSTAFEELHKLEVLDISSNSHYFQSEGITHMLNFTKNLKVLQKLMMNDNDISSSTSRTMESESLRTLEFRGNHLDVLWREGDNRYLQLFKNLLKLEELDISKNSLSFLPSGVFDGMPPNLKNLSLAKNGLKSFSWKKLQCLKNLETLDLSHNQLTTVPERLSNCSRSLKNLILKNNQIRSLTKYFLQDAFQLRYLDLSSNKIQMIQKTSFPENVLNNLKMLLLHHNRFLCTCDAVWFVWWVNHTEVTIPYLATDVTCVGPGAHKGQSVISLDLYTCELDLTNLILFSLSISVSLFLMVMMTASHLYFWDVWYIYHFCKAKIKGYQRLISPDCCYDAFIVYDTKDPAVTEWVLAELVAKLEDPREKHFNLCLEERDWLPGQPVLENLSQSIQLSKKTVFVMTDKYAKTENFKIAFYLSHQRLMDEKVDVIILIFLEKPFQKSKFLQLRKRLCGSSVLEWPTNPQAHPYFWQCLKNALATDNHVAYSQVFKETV
As to the kind of experiment: PBMC stimulation with p-L-arginine-complexed RNA ligands, IFN-α ELISA. The series is classed as cell-based. The conditions noted are these: human PBMCs; for TLR7 selectivity (IFN-α versus TNF-α secretion): p-L-arginine delivery (FIG. 7); for IFN-α secretion (TLR7 activity): p-L-arginine delivery, 16 hours, ELISA (FIG. 7). The protocol: (§1) Peripheral blood mononuclear cells (PBMCs) were obtained from buffy coats from healthy adult donors. Buffy coat samples were first diluted with an equal volume of phosphate-buffered saline (PBS). Next, PBMCs were isolated via density gradient centrifugation with Lymphoprep density gradient media ([…] Technologies) and SepMate-50 tubes ([…] Technologies). Samples were centrifuged at 1000 g for 15 minutes. After centrifugation, the upper layers were collected by pouring into a new tube, diluted with PBS, and centrifuged at 450×g for 5 minutes. To lyse red blood cells, cell pellets were resuspended with 10 mL Ammonium-Chloride-Potassium (ACK) Lysis Buffer and incubated for 8 minutes at room temperature. After lysis, cells were washed with PBS and passed through two 70 μm cell strainers. Viable cell counts were determined with a Vi-CELL cell counter (Beckman Coulter). […] Guanosine was added between about 20 and about 30 minutes before the addition of poly-[…])-complexed RNA. […] After mixing by pipetting up and down, the reaction was incubated for 10 minutes, pipetted up and down again, and then added to the cells. In some experiments, RNA ligands were used at a final concentration of 0.6 μg/ml. Where indicated as “+2'3' cGMP”, 2'3' cyclic GMP purchased from eMolecules was complexed together with the RNA ligands. The final concentration of 2'3' cyclic GMP was 5 μg/ml. p-L-arginine was adjusted accordingly to keep the mass ratio of nucleic acid:p-L-arginine constant. Cell culture supernatants were collected 15-18 hours after stimulation and stored at -80° C. Cytokines in cell culture supernatants were detected with the BD OptEIA human TNF ELISA Set (BD Biosciences), and either Invitrogen IFN alpha Human Matched Antibody Pair kit (Thermo Fisher Scientific) or Human IFN Alpha Multi-Subtype ELISA Kit (PBL Assay Science). To test the effects of the RNA ligands described in Example 1 on TLR7 and TLR8 activation, PBMCs were stimulated with the RNA ligands using p-L-arginine complex delivery, delivery with DOTAP, or delivery without a carrier. Activity of TLR7 and TLR8 was assessed based on measurements of IFN-α or TNF-α by enzyme-linked immunosorbent assays (ELISA). In this setting, as depicted in FIG. 6, IFN-α induced by small RNAs is derived from TLR7 expressed by pDCs, or from RIG-I expressed by monocytes. In contrast, TNF-α secretion is derived from monocytes and serves as an indication of TLR8 activation. As shown in this figure, the p-L-arginine delivery restricts most of the activation to TLRs. First, the effects of the RNA ligands on TLR7 and TLR8 activation using p-L-arginine complex delivery were tested.

A short description of series [2]: Particle size of RNA-poly-L-arginine complexes by Dynamic Light Scattering. The settings on record: 10 minute incubation (FIG. 9).
Method: Particle sizes were determined by Dynamic Light Scattering (Wyatt Technology). Samples were placed in multiple wells in a 384-well plate and each well was measured ten times for 5 seconds. Z-averages were reported.
Series [3] deals with T2, TLR8 (Homo sapiens, UniProt Q9NR97).
T2 construct: Peripheral blood mononuclear cells (PBMCs) were obtained from buffy coats from healthy adult donors; endogenous in cells; host or cells: primary human PBMCs from healthy donor buffy coats (TLR8 in monocytes)
T2 sequence (Q9NR97 27-1041): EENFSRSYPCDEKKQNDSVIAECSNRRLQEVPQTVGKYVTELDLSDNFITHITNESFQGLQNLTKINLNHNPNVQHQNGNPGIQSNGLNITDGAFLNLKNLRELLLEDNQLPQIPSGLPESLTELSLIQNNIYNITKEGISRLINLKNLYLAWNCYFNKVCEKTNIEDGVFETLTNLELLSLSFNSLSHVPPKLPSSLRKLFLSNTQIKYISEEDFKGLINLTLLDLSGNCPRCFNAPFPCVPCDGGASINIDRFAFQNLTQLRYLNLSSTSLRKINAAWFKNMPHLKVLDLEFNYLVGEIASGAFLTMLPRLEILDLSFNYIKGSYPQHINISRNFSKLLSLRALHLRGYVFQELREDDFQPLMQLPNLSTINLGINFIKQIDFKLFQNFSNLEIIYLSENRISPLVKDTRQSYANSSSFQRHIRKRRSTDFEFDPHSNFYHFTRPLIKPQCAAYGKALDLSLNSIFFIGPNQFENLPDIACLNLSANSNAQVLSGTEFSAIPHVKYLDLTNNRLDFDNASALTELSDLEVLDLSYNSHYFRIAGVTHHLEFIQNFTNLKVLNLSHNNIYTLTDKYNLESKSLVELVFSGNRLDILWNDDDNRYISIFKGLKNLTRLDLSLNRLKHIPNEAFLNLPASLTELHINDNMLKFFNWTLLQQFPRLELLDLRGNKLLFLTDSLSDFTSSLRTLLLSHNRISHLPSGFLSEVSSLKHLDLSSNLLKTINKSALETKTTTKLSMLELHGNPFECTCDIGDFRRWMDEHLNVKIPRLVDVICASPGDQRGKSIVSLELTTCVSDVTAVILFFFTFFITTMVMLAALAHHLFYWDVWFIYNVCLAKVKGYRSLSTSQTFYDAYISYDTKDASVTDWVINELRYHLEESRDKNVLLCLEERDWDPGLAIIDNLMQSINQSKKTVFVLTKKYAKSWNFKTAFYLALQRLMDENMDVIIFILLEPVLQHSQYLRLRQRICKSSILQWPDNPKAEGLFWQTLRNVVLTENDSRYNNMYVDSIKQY
As to the kind of experiment: PBMC stimulation with DOTAP-complexed RNA ligands, TNF-α ELISA. The class given is cell-based. The conditions noted are these: human PBMCs, DOTAP delivery, 0.6 μg/ml and 2 μg/ml, 16 hours (FIGS. 10A-10B).

Series [4] concerns the target T2, TLR8. The experiment in a line: PBMC stimulation with p-L-arginine-complexed RNA ligands, TNF-α ELISA. The class given is cell-based. The conditions noted are these: human PBMCs. The protocol:
as §1

For series [5], the target named is T1, TLR7. The experiment in a line: PBMC stimulation with DOTAP-complexed RNA ligands, IFN-α ELISA. The series is classed as cell-based. The settings on record: human PBMCs, DOTAP delivery, 0.6 μg/ml and 2 μg/ml, 16 hours (FIGS. 10A-10B).
Where [6] appears, read: p-L-arginine complexes with 2′3′ cyclic GMP 5 μg/ml, ORN 0.6 μg/ml (FIG. 12).

“C*C*G*A*G*C*C*G*C*U*U*U*U*C*C*C (CCGAGCCGCUUUUCCC; all phosphorothioate, sugars by position not given here) [ORN7013, reference compound]”: in the series with TLR7 [1], the “TLR7 selectivity (IFN-α versus TNF-α secretion)” value (“TLR7 selectivity” below) is on record as “limited TLR7 selectivity; also recorded: less TLR7-selective”; the “IFN-α secretion (TLR7 activity)” value was “limited TLR7 selectivity and activity; also recorded: less TLR7-selective and active”. Also, the “Particle size (diameter) of RNA-poly-L-arginine complexes” value (from here on “Particle size (diameter)”) in series [2] is recorded as “behaved similarly”.

As for “C*C*G*A*G*C*C*G*C*fU-U*fU-U*C*C*C (rC*rC*rG*rA*rG*rC*rC*rG*rC*fUrU*fUrU*rC*rC*rC) [ORN7015]”, in the series with TLR7 [1], the “TLR7 selectivity” value is “moderately selective”; the “IFN-α secretion (TLR7 activity)” value was “moderately selective and active”. Also, the “Particle size (diameter)” value in series [2] is “behaved similarly”.

In the case of “C*C*G*A*G*C*C*G*C*mU-U*fU-U*C*C*C (rC*rC*rG*rA*rG*rC*rC*rG*rC*mUrU*fUrU*rC*rC*rC) [ORN7016]”, in the series with TLR7 [1], the “TLR7 selectivity” value was “TLR7-selective” and the “IFN-α secretion (TLR7 activity)” value is “weakly active”. Moreover, in series [2], the “Particle size (diameter)” value was “behaved similarly”.

As to “C*C*U*U*C*U*U*C*U*U*C*U*U*C*U*U*C*U*U*C (rC*rC*rU*rU*rC*rU*rU*rC*rU*rU*rC*rU*rU*rC*rU*rU*rC*rU*rU*rC) [ORN7012]”, the “TNF-α secretion (TLR8 activity)” value was “further increased TLR8 activation” with TLR8 [3] and “TLR8-active” with TLR8 [4] (p-L-arginine delivery, 16 hours, ELISA (FIG. 7)). The “Particle size (diameter)” value in series [2] is on record as “behaved similarly”.

On to “C-G-G-mC-U-C-G-G-C-A-G-A-A-G-C-C-G-G-G-C-C (rCrGrGmCrUrCrGrGrCrArGrArArGrCrCrGrGrGrCrC; hairpin) [ORN70230me]”, for which, in the series with TLR7 [1], the “TLR7 selectivity” value is reported as “maintained TLR7 selectivity; also recorded: TLR7-selective” and the “IFN-α secretion (TLR7 activity)” value was “further increasing the activity; also recorded: highly active”. For the same substance, the “Particle size (diameter)” value in series [2] was “behaved similarly”.

Turning to “U-mC-U-mC-U-mC-U-mC-U-mC-U-mC-U-mC-U-mC-U-mC-U-C (rUmCrUmCrUmCrUmCrUmCrUmCrUmCrUmCrUmCrUrC) [ORN7006, 2′O-methyl-modified version of ORN7005]”, the “IFN-α secretion (TLR7 activity)” value with TLR7 [5] is “reduced both TLR8 and TLR7 activation”. Moreover, in the series with TLR8 [3], the “TNF-α secretion (TLR8 activity)” value is “reduced both TLR8 and TLR7 activation”. Also, in the series with TLR7 [1] (setting [6]), the “IFN-α secretion when co-delivered with 2′3′ cGMP” value is “robust IFN-a induction”. Also, the “TNF-α secretion when co-delivered with 2′3′ cyclic GMP” value with TLR8 [4] (setting [6]) is “little to no measurable TNF-α”.
